Experimental findings from publication PMC9268428, “Determination of the Highly Sensitive Carboxyl-Graphene Oxide-Based Planar Optical Waveguide Localized Surface Plasmon Resonance Biosensor” (Nanomaterials, 2022) are described below.

The experiment concerns the target T1, streptavidin (Streptomyces avidinii, UniProt P22629).
T1 construct: free analyte in PBS
The experiment can be described thus: localized surface plasmon resonance on graphene-oxide optical waveguide, affinity constant from ka/kd. Format: binding. Particulars: read-out: Kf (converted). The source says:
localized surface plasmon resonance on graphene-oxide optical waveguide, affinity constant from ka/kd on streptavidin | ka and kd of biotin binding with streptavidin were estimated to be

Structures are written as SMILES. Counter-ions that a name gives are not always drawn.

T1 sequence (P22629 25-183): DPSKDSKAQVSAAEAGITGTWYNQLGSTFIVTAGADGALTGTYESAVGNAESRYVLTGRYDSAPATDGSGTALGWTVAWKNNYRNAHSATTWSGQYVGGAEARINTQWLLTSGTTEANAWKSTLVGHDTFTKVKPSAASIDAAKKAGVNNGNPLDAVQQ

Turning to `NCCCNC(=O)CCCC[C@@H]1SC[C@@H]2NC(=O)N[C@@H]21` [N-(+)-biotinyl-3-aminopropylammonium trifluoroacetate], the Kd was 0.137 nM.
